Test results as given in patent publication US9517204B2, “Pharmaceutical composition for inhalation” (SHIONOGI & CO., LTD., priority 2011, dated 2016).
Like-named read-outs stand apart in the source and are kept apart here.

Columns and labels:
[1] = Reactive oxygen species (ROS) assay, photoreactivity testing; assay type: physicochemical
Text: This assay was established to monitor the generation of ROS, such as singlet oxygen and superoxide, from photoirradiated chemicals, and ROS generation would be indicative of the photochemical reactivity of tested chemicals.
In contrast, 8-methoxypsoralen (MOP) is known as a phototoxic and photoreactive chemical. Although 8-MOP slightly exceeded pirfenidone in ROS generation, both chemicals were identified to be photoreactive, as shown in FIG. 3 (A). When such photoreactivity and photoirritability are taken into consideration, pirfenidone can be said to raise concerns about photostability.

Photostability testing = assay type: physicochemical; conditions: simulated sunlight (250 W/m^2)
Method: Here, in respirable formulation of pirfenidone, both liquid and dry powder formulations can be considered in theory. Then, to clarify the photochemical properties in more detail, photostability testing was carried out. […] In general, photosensitive chemicals in a solution state are far more prone to photodegradation than solid samples due to the high permeability of light and increased mobility of photochemically excited molecules and reactive species. From this, taken together with the result shown in FIG. 3 (B), dry powder formulation, rather than liquid formulation, is preferable as a respirable formulation of pirfenidone.

[2] = Pharmacokinetics (1): plasma and tissues after oral and intratracheal administration; assay type: in vivo, rats; conditions: for Cmax / MRT / half-life / AUC(0-inf): rat
Method: However, the possibility of risk reduction of photodermatosis is not clear. In general, since drug-induced photodermatosis appear in the skin and eyes, the specific distribution of drug molecules in the skin and/or eyes could be a key consideration for evaluating the photodermatosis risk. Then, in order to verify the photosafety of the formulation 1, a pharmacokinetic study was undertaken after intratracheal administration of the formulation 1 at a pharmacologically effective dose (1 mg/kg). Additionally, since in the oral administration, both pharmaceutically effective and phototoxic dose (160 mg/kg) and pharmaceutically non-effective and non-phototoxic dose (30 mg/kg) are known, pharmacokinetic parameters were obtained after oral administration at both doses. Concentration-time curves of pirfenidone in the plasma, skin, lung, and eyes were obtained by UPLC/ESI-MS analysis after intratracheal and oral administrations. After oral administration of pirfenidone, plasma and lung concentrations of pirfenidone immediately reached the Cmax within 5 min and these concentrations decreased steadily with half lives of ca. 0.3-0.8 h.

[3] = patients who have taken the oral agent; cited from earlier work
[4] = Pharmacokinetics (3): skin transmigration in repeated-dose administrations; assay type: in vivo
Method: Results of having monitored the amount of skin transmigration of pirfenidone in repeated-dose administrations by oral and inhalation are shown in FIG. 8. Although a temporary elevation of the pirfenidone concentration in the skin was observed by pirfenidone oral administration (30, 160 mg/kg) also in repeated-dose administrations in every 12 hours, the elevation disappeared in about 6 hours after administration. […] From this, the systemic side effect is considered to be avoidable even when the respirable formulation is used repeatedly.

[5] = Pharmacokinetics 2: transmigration of pirfenidone to tissue after single-dose administration; set-up: species or system rats; conditions: rat, in vivo, po, 160 mg/kg
Method: Similarly to Example 5, single-dose administrations of pirfenidone orally and the formulation 1 by inhalation were performed in rats, and the amount of transmigration of pirfenidone to each tissue was monitored by UPLC/ESI-MS. When compared in dose (160 mg/kg) having an anti-inflammatory activity, while the amount of skin-transmigration of pirfenidone in 1 hour after administration was about 50 ng/g-tissue via inhalation (1 mg/kg), the amount via oral administration (160 mg/kg) was about 20 μg/g-tissue. From this, while the amount of medication in inhalation is 1/160 in the case of oral administration, the amount of skin transmigration in inhalation decreases to 1/400 of oral formulation. […] Thus, the respirable formulation of the present invention has an excellent effect.

skin = assay: Phototoxic reaction in oral administration of pirfenidone (skin color, color difference meter); assay type: in vivo, rats; conditions: for change of skin color compared to the control group: black light irradiation
Method: Hair of rats were carefully shaved by hair clipper, and pirfenidone was administered orally to the rats (160 mg/kg or 30 mg/kg), and the rats were irradiated with a black light. Colors of the skin before and after the light irradiation were evaluated with a color difference meter.

[6] = 30 mg/kg oral, UV +, after treatment
[7] = 30 mg/kg oral, UV +, initial value
[8] = 30 mg/kg oral, UV −, after treatment
[9] = 30 mg/kg oral, UV −, initial value
[10] = 160 mg/kg oral, UV +, after treatment
[11] = 160 mg/kg oral, UV +, initial value
[12] = 160 mg/kg oral, UV −, after treatment
[13] = 160 mg/kg oral, UV −, initial value

## COc1c2occc2cc2ccc(=O)oc12 [Formulation 8-MOP, 8-methoxypsoralen]
[1]; exposed to simulated sunlight (250 W/m^2)
  ROS generation (singlet oxygen, superoxide), photoreactivity: photoreactive

## COc1cc(O)c(C(=O)c2ccccc2)cc1S(=O)(=O)O [Sulisobenzone, sulisobenzone]
[1]
  ROS generation (singlet oxygen, superoxide), photoreactivity: no ability to generate ROS

## Cc1ccc(=O)n(-c2ccccc2)c1 [pirfenidone]
Photostability testing; powder
  degradation: no significant degradation
Photostability testing; solution
  apparent first-order degradation rate: 0.31 ± 0.03 h⁻¹
[2]; eyes, rats, 30 mg/kg, p.o.
  AUC0→∞: 8.33 ± 0.39 h · μg/g tissue
[2]; eyes, rats, 160 mg/kg, p.o.
  AUC0→∞: 58.8 ± 1.3 h · μg/g tissue
[2]; lung, rats, 30 mg/kg, p.o.
  AUC0→∞: 6.45 ± 0.43 h · μg/g tissue
[2]; lung, rats, 160 mg/kg, p.o.
  AUC0→∞: 52.1 ± 1.0 h · μg/g tissue
[2]; po, eyes, rats, 30 mg/kg
  Cmax: 3950 ± 300 ng/g
  MRT: 1.06 ± 0.13 h
[2]; po, eyes, rats, 30 mg/kg, p.o., read-out: t1/2 (converted)
  half-life: 0.668 ± 0.18 h
[2]; po, eyes, rats, 160 mg/kg
  Cmax: 26000 ± 2600 ng/g
  MRT: 1.93 ± 0.051 h
[2]; po, eyes, rats, 160 mg/kg, p.o., read-out: t1/2 (converted)
  half-life: 1.06 ± 0.27 h
[2]; po, lung, rats, 30 mg/kg
  Cmax: 6460 ± 690 ng/g
  MRT: 0.787 ± 0.16 h
[2]; po, lung, rats, 30 mg/kg, p.o., read-out: t1/2 (converted)
  half-life: 0.799 ± 0.24 h
[2]; po, lung, rats, 160 mg/kg
  Cmax: 37600 ± 5700 ng/g
  MRT: 1.32 ± 0.041 h
[2]; po, lung, rats, 160 mg/kg, p.o., read-out: t1/2 (converted)
  half-life: 0.766 ± 0.16 h
[2]; po, plasma, rats, 30 mg/kg
  AUC(0-inf): 14100 ± 920 ng·h/mL
  Cmax: 19.7 ± 0.93 µg/mL
  MRT: 0.667 ± 0.094 h
[2]; po, plasma, rats, 30 mg/kg, p.o., read-out: t1/2 (converted)
  half-life: 0.33 ± 0.02 h
[2]; po, plasma, rats, 160 mg/kg
  AUC(0-inf): 152000 ± 10000 ng·h/mL
  Cmax: 135 ± 11 µg/mL
  MRT: 1.05 ± 0.075 h
[2]; po, plasma, rats, 160 mg/kg, p.o., read-out: t1/2 (converted)
  half-life: 0.53 ± 0.03 h
[2]; po, skin, rats, 30 mg/kg
  Cmax: 8160 ± 470 ng/g
  MRT: 1.14 ± 0.12 h
[2]; po, skin, rats, 30 mg/kg, p.o., read-out: t1/2 (converted)
  half-life: 1.07 ± 0.28 h
[2]; po, skin, rats, 160 mg/kg
  Cmax: 32900 ± 2600 ng/g
  MRT: 1.7 ± 0.043 h
[2]; po, skin, rats, 160 mg/kg, p.o., read-out: t1/2 (converted)
  half-life: 1.06 ± 0.24 h
[2]; plasma and lung, oral administration (30 and 160 mg/kg), read-out: half lives
  half-life: 0.3 to 0.8 h
[2]; skin and eye, after oral dosing, read-out: half-life of elimination phase
  half-life: 0.7 to 1.1 h
[2]; skin and eye, after oral dosing
  time of reaching maximum levels: ca. 0.5 h
[2]; skin, rats, 30 mg/kg, p.o.
  AUC0→∞: 11.5 ± 0.51 h · μg/g tissue
[2]; skin, rats, 160 mg/kg, p.o.
  AUC0→∞: 68.0 ± 1.4 h · μg/g tissue
[3]
  expression frequency of drug-induced photodermatosis: about 60%
[4]; oral 30, 160 mg/kg, repeated-dose every 12 hours
  time after administration at which the elevation of skin concentration disappeared: about 6 hours
[4]; oral, repeated-dose administrations
  accumulation in skin: did not show any accumulation trend
[5]
  concentration at 1 h: ~20000 ng/g
[1]
  ROS generation (singlet oxygen, superoxide), photoreactivity: photoreactive
skin; 30 mg/kg oral, UV +
  ΔE, evaluation of color change: 2.40 ± 0.20
skin; [6]
  L*: 72.26
  a*: 2.81
  b*: 5.72
skin; [7]
  L*: 72.90
  a*: 1.27
  b*: 4.14
skin; 30 mg/kg oral, UV −
  ΔE, evaluation of color change: 1.47 ± 0.27
skin; [8]
  L*: 71.56
  a*: 1.54
  b*: −0.36
skin; [9]
  L*: 70.16
  a*: 1.19
  b*: −0.18
skin; 30 mg/kg oral
  change of skin color compared to the control group: significant change was not observed
skin; 30 mg/kg orally to rat
  photodermatosis: photodermatosis was not caused
skin; 160 mg/kg oral, UV +
  ΔE, evaluation of color change: 3.97 ± 0.59
skin; [10]
  L*: 72.35
  a*: 2.06
  b*: 9.17
skin; [11]
  L*: 71.05
  a*: 0.89
  b*: 5.67
skin; 160 mg/kg oral, UV −
  ΔE, evaluation of color change: 1.69 ± 0.24
skin; [12]
  L*: 71.04
  a*: −1.04
  b*: 4.88
skin; [13]
  L*: 70.59
  a*: 0.09
  b*: 3.67
skin; 160 mg/kg oral
  change of skin color compared to the control group: Change of skin color was intentionally observed
